Data: ChEMBL document CHEMBL3351421, “Novel styryl-indoles as small molecule inhibitors of 25-hydroxyvitamin D-24-hydroxylase (CYP24A1): Synthesis and biological evaluation” (Eur J Med Chem, 2014)
pIC50, pKi: −log10 of the molar value.

The compounds below were run against T1, 1,25-dihydroxyvitamin D(3) 24-hydroxylase, mitochondrial (Homo sapiens, UniProt Q07973) (assay: Inhibition of N-terminally MBP-fused human CYP24A1 by cell-free assay).
T1 sequence (Q07973 whole entry): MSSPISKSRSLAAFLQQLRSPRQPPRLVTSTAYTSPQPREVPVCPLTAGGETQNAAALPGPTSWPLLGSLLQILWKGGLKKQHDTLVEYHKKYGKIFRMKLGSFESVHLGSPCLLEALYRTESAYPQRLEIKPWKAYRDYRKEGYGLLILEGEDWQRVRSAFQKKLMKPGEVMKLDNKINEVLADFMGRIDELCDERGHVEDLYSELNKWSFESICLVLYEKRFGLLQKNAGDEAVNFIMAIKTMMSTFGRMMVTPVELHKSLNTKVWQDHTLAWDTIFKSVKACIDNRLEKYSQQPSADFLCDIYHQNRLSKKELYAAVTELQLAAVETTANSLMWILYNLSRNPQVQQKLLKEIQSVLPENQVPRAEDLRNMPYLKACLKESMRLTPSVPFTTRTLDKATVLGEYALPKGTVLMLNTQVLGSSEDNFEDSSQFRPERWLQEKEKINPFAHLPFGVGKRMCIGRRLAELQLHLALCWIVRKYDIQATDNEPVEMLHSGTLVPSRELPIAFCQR

pIC50	pKi	SMILES
6.44	7.59	C(=C\c1cccc2c1ccn2CCCn1ccnc1)/c1ccccc1
6.36	7.51	COc1cc(/C=C/c2cccc3c2ccn3CCCn2ccnc2)cc(OC)c1
6.70	7.85	C(=C\c1cccc2c1ccn2CCCCn1ccnc1)/c1ccccc1
6.72	7.85	COc1cc(/C=C/c2cccc3c2ccn3CCCCn2ccnc2)cc(OC)c1
6.28	7.43	C(=C\c1ccc2c(ccn2CCCn2ccnc2)c1)/c1ccccc1
6.28	7.43	C(=C\c1ccc2c(ccn2CCCCn2ccnc2)c1)/c1ccccc1
5.32	6.47	Cc1ccc(S(=O)(=O)NCCCn2ccc3c(/C=C/c4ccccc4)cccc32)cc1
4.98	6.14	COc1cc(/C=C/c2cccc3c2ccn3CCCNS(=O)(=O)c2ccc(C)cc2)cc(OC)c1
5.48	6.64	Cc1ccc(S(=O)(=O)NCCCCn2ccc3c(/C=C/c4ccccc4)cccc32)cc1
4.98	6.13	COc1cc(/C=C/c2cccc3c2ccn3CCCCNS(=O)(=O)c2ccc(C)cc2)cc(OC)c1
5.12	6.27	O=S(OCCCn1ccc2c(/C=C/c3ccccc3)cccc21)c1ccccc1 (stereo unspecified)
5.05	6.19	Cc1ccc(S(=O)(=O)OCCCn2ccc3c(/C=C/c4ccccc4)cccc32)cc1
4.77	5.92	COc1cc(/C=C/c2cccc3c2ccn3CCCOS(=O)(=O)c2ccc(C)cc2)cc(OC)c1
